Results on three compounds are retold here after patent publication EP2921179A1, “Micellar nanoparticles containing antitumoral glycosides” (Fundación Centro Nacional de Investigaciones …, priority 2014, dated 2015).

Data set [1] deals with A549 cell line. Kind of data set: MTT assay, inhibition of A549 tumor cell proliferation. It counts as cell-based, Human. As to conditions: 48 h treatment, read-out: ID50 (µM) A549. As for the experimental part:
Human A549 cell line and C6 rat glioma cell line were maintained in Dulbecco's modified Eagle's medium (DMEM) complete medium (Sigma-Aldrich, St. Louis, MO), supplemented with fetal bovine serum (FBS, 10%; GLinus, Madrid, Spain), glutamine (2 mM), penicillin (50 IU/mL), and streptomycin ([…]), at 37 °C in a 5% CO2 humidified atmosphere. Exponentially growing cells were seeded on 96-well plates (Beckton Dickinson, Le Pont de Claix, France), in DMEM complete medium, at a density of 1.5 x 10^4 cells/well for C6 cell and 5 x 10^3 cells/well for A549 cells respectively. The cells were allowed to attach with 5% of CO2 at 37°C for overnight, and then, to serum starve the cells, the medium was replaced by 100 µL of fresh DMEM without FBS and maintained overnight. Stock solutions in EtOH of the glycoside derivatives of formula (I) of Example 2 (50 mM) or stock solutions in PBS of the micelles of Example 3 were finally dissolved in DMEM complete medium for the treatments. The cells were treated with serial dilutions of glycoside derivatives of formula (I) of Example 2 or micelles of Example 3 for 48 h. For the experiments with micelles of Example 3, some 96-well plates were placed over a MagnetoFACTOR-96 device (Chemicell) to produce a strong magnetic field to each well and increase the proximity of the nanoparticles to the cells. Also, iron oxide nanoparticles coated with azelaic acid were tested (Azelaic-NP, obtained as described in Chemistry - A European Journal, 2008, 14 (30), 9126-9130) Cell proliferation was evaluated with an MTT assay (Sigma-Aldrich), based on the conversion of the water-soluble MTT into an insoluble formazan. Briefly, after 48 h of compound treatment, the medium was replaced by 100 µL of fresh DMEM without phenol red containing MTT (5 mg/mL) solution, and cells were incubated for additional 3 h at 37 °C with 5% CO2. After this time, the medium was removed, the precipitated formazan was dissolved in 100 µL of DMSO, and the solution optical density was measured at 595 nm in Spectramax Plus equipment (Molecular Devices Corporation). […]

For data set [2], the system named is C6 rat glioma cell line. Kind of data set: MTT assay, inhibition of C6 tumor cell proliferation. It counts as cell-based. The conditions noted are these: for IC50: free glycoside derivative, 48 h treatment, MTT, read-out: ID50 (µM) C6. The procedure: Human A549 cell line and C6 rat glioma cell line were maintained in Dulbecco's modified Eagle's medium (DMEM) complete medium (Sigma-Aldrich, St. Louis, MO), supplemented with fetal bovine serum (FBS, 10%; GLinus, Madrid, Spain), glutamine (2 mM), penicillin (50 IU/mL), and streptomycin ([…]), at 37 °C in a 5% CO2 humidified atmosphere. Exponentially growing cells were seeded on 96-well plates (Beckton Dickinson, Le Pont de Claix, France), in DMEM complete medium, at a density of 1.5 x 10^4 cells/well for C6 cell and 5 x 10^3 cells/well for A549 cells respectively. The cells were allowed to attach with 5% of CO2 at 37°C for overnight, and then, to serum starve the cells, the medium was replaced by 100 µL of fresh DMEM without FBS and maintained overnight. Stock solutions in EtOH of the glycoside derivatives of formula (I) of Example 2 (50 mM) or stock solutions in PBS of the micelles of Example 3 were finally dissolved in DMEM complete medium for the treatments. The cells were treated with serial dilutions of glycoside derivatives of formula (I) of Example 2 or micelles of Example 3 for 48 h. For the experiments with micelles of Example 3, some 96-well plates were placed over a MagnetoFACTOR-96 device (Chemicell) to produce a strong magnetic field to each well and increase the proximity of the nanoparticles to the cells. Also, iron oxide nanoparticles coated with azelaic acid were tested (Azelaic-NP, obtained as described in Chemistry - A European Journal, 2008, 14 (30), 9126-9130) Cell proliferation was evaluated with an MTT assay (Sigma-Aldrich), based on the conversion of the water-soluble MTT into an insoluble formazan. Briefly, after 48 h of compound treatment, the medium was replaced by 100 µL of fresh DMEM without phenol red containing MTT (5 mg/mL) solution, and cells were incubated for additional 3 h at 37 °C with 5% CO2. After this time, the medium was removed, the precipitated formazan was dissolved in 100 µL of DMSO, and the solution optical density was measured at 595 nm in Spectramax Plus equipment (Molecular Devices Corporation). Absorption values were referred to positive proliferation controls (cells cultured in DMEM complete medium) and negative proliferation controls cells cultured in DMEM without FBS). Inhibition was expressed as an ID50 value, the compound concentration that reduced maximal proliferation by 50%, and the results are shown in Table 3. Table 3. Biological activity of glycoside derivatives of formula (I) and micelles comprising said glycoside derivatives.

Data set [3] in a line: Solubility / stability in water. It is filed as physicochemical. As to conditions: pure water, observed by eye. An excerpt:
For GC-22 and TFA-GC22, the glycosides alone are not soluble in pure water, while the micelles GC-22-NPs and TFA-GC22-NPs are stable in the aqueous phase. Precipitate of GC-22 and TFA-GC22 can be observed by eye straight away in a pure water solution and no re-dispersion is produced when the aqueous micellar solution is mixed with an organic solvent selected from the group consisting of dichloromethane, chloroform, hexane, heptane, toluene, in a volume proportion of 1:1.

[4] abbreviates: Homo sapiens, A549, free glycoside derivative.

Read-outs that look alike come from different tables or passages of the source.

In the case of `CCCCCCCC/C=C\CCCCCCCCO[C@H]1O[C@H](CO)[C@@H](O)[C@H](O)[C@H]1NC(=O)C(F)(F)F` [TFAGC22, Oleyl2-deoxy-2-trifluoroacetamido-α-D-glucopyranoside], the IC50 worked out at 8.6 µM in data set [1] (setting [4]) and 14.2 ± 0.3 µM in data set [2] (Rattus norvegicus, Glioma cell). In data set [3], the solubility in water entry is “not soluble”.
For `CCCCCCCC/C=C\CCCCCCCCO[C@H]1O[C@H](CO)[C@@H](O)[C@H](O)[C@H]1NC(C)=O` [GC22, Oleyl 2-acetamido-2-deoxy-α-D-glucopyranoside] the same measures were 10 µM, 15.5 ± 0.3 µM and “not soluble”.
For the compound `CCCCCCCC/C=C\CCCCCCCCO[C@H]1O[C@H](COS(=O)(=O)[O-])[C@@H](O)[C@H](O)[C@H]1NC(C)=O.[K+]` [IG20, Oleyl 2-acetamido-2-deoxy-6-O-(oxosulfonyl)-α-D-glucopyranoside potassium salt], the IC50 in data set [1] (free glycoside derivative) is 97 µM; in data set [2], > 100 µM. The “inhibition of proliferation of C6 tumor cells” value in data set [2] (result in words) is listed as “did not show inhibition”. Also, the solubility in water entry in data set [3] is “soluble in water”.
